From patent publication US11214803B2, “Modulators of YAP1 expression” (Ionis Pharmaceuticals, Inc., priority 2019, dated 2022)
Strand notation (5' to 3'): a small letter for the sugar, then the base; units joined by * are phosphorothioate-linked, units joined directly phosphodiester-linked; [ ] holds rarer units or linkages, { } end groups; capitals alone tell only the bases. k = constrained ethyl (cEt); [5mC] = 5-methylcytosine; d = 2'-deoxy (DNA)

Assays:
[1] = tested on: BICR56 cells; test: Cell proliferation assay in BICR56 cells, CellTiter-Glo (Example 33); assay type: cell-based, human; conditions: free uptake, approximately 144 hours
Method: Modified oligonucleotides described in the studies above were tested at various doses in squamous cell carcinoma adherent keratinocyte cell line BICR56. A control oligonucleotide 792169 was also tested.
(§1) Cultured BICR56 cells at a density of 1000 cells/well were treated using free uptake with modified oligonucleotides diluted to concentrations described in the tables below. After approximately 144 hours, cell proliferation was measured using the luminescent cell viability CellTiter-Glo® 2.0 Assay (Promega). Results are presented in the tables below as percent control of the amount of luminescence in samples treated with modified oligonucleotides relative to untreated control cells (% UTC).

[2] = tested on: CAL33 cells; test: Cell proliferation assay in CAL33 cells, CellTiter-Glo (Example 36); assay type: cell-based, human; conditions: free uptake, approximately 144 hours
Method: Modified oligonucleotides described in the studies above were tested at various doses in tongue squamous cell carcinoma line CAL33. A control oligonucleotide 792169, described herein above, was also tested.
as §1, with “CAL33” for “BICR56”

[3] = tested on: Yap1 mRNA; test: Yap1 mRNA in CAL27 cells, RNA analysis (Example 37); assay type: cell-based, human; conditions: free uptake, approximately 48 hours
Method: Modified oligonucleotides described in the studies above were tested at various doses in tongue squamous cell carcinoma line CAL27. A control oligonucleotide 792169, described herein above, was also tested.
(§2) Cultured CAL27 cells at a density of 5000 cells per well were treated using free uptake with modified oligonucleotides diluted to concentrations described in the tables below. After approximately 48 hours, Yap1 mRNA levels were measured as previously described using the Human Yap1 primer-probe set RTS4814. Yap1 mRNA levels were normalized to actin-beta content, as measured by primer probe set RTS5002. Results are presented in the tables below as percent control of the amount of Yap1 mRNA relative to untreated control cells (% UTC).

[4] = tested on: SCC-15 cells; test: Cell proliferation assay in SCC-15 cells, CellTiter-Glo (Example 41); assay type: cell-based, human; conditions: free uptake, approximately 144 hours
Method: Modified oligonucleotides described in the studies above were tested at various doses in tongue squamous cell carcinoma cell line SCC-15. A control oligonucleotide 792169, described herein above, was also tested.
as §1, with “SCC-15” for “BICR56”

[5] = tested on: SNU-899 cells; test: Cell proliferation assay in SNU-899 cells, CellTiter-Glo (Example 43); assay type: cell-based, human; conditions: free uptake, approximately 144 hours
Method: Modified oligonucleotides described in the studies above were tested at various doses in laryngeal squamous cell carcinoma cell line SNU-899. A control oligonucleotide 792169, described herein above, was also tested.
as §1, with “SNU-899” for “BICR56”

[6] = tested on: Yap1 mRNA; test: Yap1 mRNA in SNU-1066 cells, RNA analysis (Example 44); assay type: cell-based, human; conditions: free uptake, approximately 48 hours
Method: Modified oligonucleotides described in the studies above were tested at various doses in laryngeal squamous cell carcinoma line SNU-1066. A control oligonucleotide 792169, described herein above, was also tested.
as §2, with “SNU-1066” for “CAL27”

[7] = tested on: SNU-1214 cells; test: Cell proliferation assay in SNU-1214 cells, CellTiter-Glo (Example 46); assay type: cell-based, human; conditions: free uptake, approximately 144 hours
Method: Modified oligonucleotides described in the studies above were tested at various doses in laryngeal squamous cell carcinoma cell line […]. A control oligonucleotide 792169, described herein above, was also tested.
as §1, with “SNU-1214” for “BICR56”

[8] = tested on: CAL33 xenograft tumor; test: Tumor volume and tumor weight in CAL33 xenograft tumor model (Example 29); assay type: in vivo, human; conditions: 50 mg/kg twice weekly for two weeks; for Average Tumor weight: CAL33 xenograft mice, end of study; for Average Tumor Volume: CAL33 xenografts
Method: A xenograft tumor model was used to evaluate activity of modified oligonucleotides targeted to human Yap1. One million CAL33 cells in 30% matrigel were implanted subcutaneously into the flanks of female CrTac:NCr-Foxnlnu (Taconic) mice. When tumors reached an average volume of 100 mm^3, approximately two weeks post-implantation, groups of eight mice were administered at 50 mg/kg twice weekly with modified oligonucleotides for two weeks. ION 792169 was administered as a control.
Tumor volume was measured at the indicated days in the table below. Tumor weight was determined at end of study. Mice were sacrificed when tumors from PBS-treated mice reached 2,000 mm3.

## 715487 (kA*kT*kT*dA*d[5mC]*dT*dT*d[5mC]*dA*dT*dA*dG*d[5mC]*kT*kT*kA) [compound 715487]
[1]; 0.04 μM
  Antiproliferative effect (cell proliferation, luminescence): 70 % UTC
[1]; 0.2 μM
  Antiproliferative effect (cell proliferation, luminescence): 26 % UTC
[1]; 1 μM
  Antiproliferative effect (cell proliferation, luminescence): 9 % UTC
[1]; 5 μM
  Antiproliferative effect (cell proliferation, luminescence): 4 % UTC
[2]; 0.04 μM
  Antiproliferative effect (cell proliferation, luminescence): 89 % UTC
[2]; 0.2 μM
  Antiproliferative effect (cell proliferation, luminescence): 79 % UTC
[2]; 1 μM
  Antiproliferative effect (cell proliferation, luminescence): 61 % UTC
[2]; 5 μM
  Antiproliferative effect (cell proliferation, luminescence): 37 % UTC
[3]; 0.08 μM
  human Yap1 mRNA expression: 35 % UTC
[3]; 0.4 μM
  human Yap1 mRNA expression: 23 % UTC
[3]; 2 μM
  human Yap1 mRNA expression: 5 % UTC
[3]; 10 μM
  human Yap1 mRNA expression: 3 % UTC
[4]; 0.04 μM
  Antiproliferative effect (cell proliferation, luminescence): 87 % UTC
[4]; 0.2 μM
  Antiproliferative effect (cell proliferation, luminescence): 66 % UTC
[4]; 1 μM
  Antiproliferative effect (cell proliferation, luminescence): 47 % UTC
[4]; 5 μM
  Antiproliferative effect (cell proliferation, luminescence): 28 % UTC
[5]; 0.04 μM
  Antiproliferative effect (cell proliferation, luminescence): 82 % UTC
[5]; 0.2 μM
  Antiproliferative effect (cell proliferation, luminescence): 78 % UTC
[5]; 1 μM
  Antiproliferative effect (cell proliferation, luminescence): 71 % UTC
[5]; 5 μM
  Antiproliferative effect (cell proliferation, luminescence): 62 % UTC
[6]; 0.04 μM
  human Yap1 mRNA expression: 77 % UTC
[6]; 0.2 μM
  human Yap1 mRNA expression: 49 % UTC
[6]; 1 μM
  human Yap1 mRNA expression: 22 % UTC
[6]; 5 μM
  human Yap1 mRNA expression: 7 % UTC
[7]; 0.04 μM
  Antiproliferative effect (cell proliferation, luminescence): 93 % UTC
[7]; 0.2 μM
  Antiproliferative effect (cell proliferation, luminescence): 69 % UTC
[7]; 1 μM
  Antiproliferative effect (cell proliferation, luminescence): 52 % UTC
[7]; 5 μM
  Antiproliferative effect (cell proliferation, luminescence): 38 % UTC

## 1198440 (AAGTGTATGTCAGAAG; cEt, 2'-MOE, 5-methylcytosine, phosphorothioate modifications, further chemistry not given here) [compound 1198440]
[8]
  Average Tumor weight: 0.36 g
[8]; day 10 post-implantation
  Average Tumor Volume: 115 mm^3
[8]; day 13 post-implantation
  Average Tumor Volume: 279 mm^3
[8]; day 17 post-implantation
  Average Tumor Volume: 376 mm^3
[8]; day 21 post-implantation
  Average Tumor Volume: 574 mm^3
[8]; day 24 post-implantation
  Average Tumor Volume: 651 mm^3
[8]; day 27 post-implantation
  Average Tumor Volume: 818 mm^3
[8]; day 31 post-implantation
  Average Tumor Volume: 888 mm^3
[8]; day 34 post-implantation
  Average Tumor Volume: 857 mm^3
[8]; day 38 post-implantation
  Average Tumor Volume: 770 mm^3
[8]; day 40 post-implantation
  Average Tumor Volume: 746 mm^3
[8]; day 44 post-implantation
  Average Tumor Volume: 834 mm^3
[1]; 0.04 μM
  Antiproliferative effect (cell proliferation, luminescence): 28 % UTC
[1]; 0.2 μM
  Antiproliferative effect (cell proliferation, luminescence): 10 % UTC
[1]; 1 μM
  Antiproliferative effect (cell proliferation, luminescence): 6 % UTC
[1]; 5 μM
  Antiproliferative effect (cell proliferation, luminescence): 4 % UTC
[2]; 0.04 μM
  Antiproliferative effect (cell proliferation, luminescence): 84 % UTC
[2]; 0.2 μM
  Antiproliferative effect (cell proliferation, luminescence): 67 % UTC
[2]; 1 μM
  Antiproliferative effect (cell proliferation, luminescence): 58 % UTC
[2]; 5 μM
  Antiproliferative effect (cell proliferation, luminescence): 44 % UTC
[3]; 0.08 μM
  human Yap1 mRNA expression: 23 % UTC
[3]; 0.4 μM
  human Yap1 mRNA expression: 6 % UTC
[3]; 2 μM
  human Yap1 mRNA expression: 4 % UTC
[3]; 10 μM
  human Yap1 mRNA expression: 4 % UTC
[4]; 0.04 μM
  Antiproliferative effect (cell proliferation, luminescence): 72 % UTC
[4]; 0.2 μM
  Antiproliferative effect (cell proliferation, luminescence): 54 % UTC
[4]; 1 μM
  Antiproliferative effect (cell proliferation, luminescence): 42 % UTC
[4]; 5 μM
  Antiproliferative effect (cell proliferation, luminescence): 32 % UTC
[5]; 0.04 μM
  Antiproliferative effect (cell proliferation, luminescence): 82 % UTC
[5]; 0.2 μM
  Antiproliferative effect (cell proliferation, luminescence): 75 % UTC
[5]; 1 μM
  Antiproliferative effect (cell proliferation, luminescence): 69 % UTC
[5]; 5 μM
  Antiproliferative effect (cell proliferation, luminescence): 66 % UTC
[6]; 0.04 μM
  human Yap1 mRNA expression: 70 % UTC
[6]; 0.2 μM
  human Yap1 mRNA expression: 28 % UTC
[6]; 1 μM
  human Yap1 mRNA expression: 7 % UTC
[6]; 5 μM
  human Yap1 mRNA expression: 2 % UTC
[7]; 0.04 μM
  Antiproliferative effect (cell proliferation, luminescence): 84 % UTC
[7]; 0.2 μM
  Antiproliferative effect (cell proliferation, luminescence): 72 % UTC
[7]; 1 μM
  Antiproliferative effect (cell proliferation, luminescence): 53 % UTC
[7]; 5 μM
  Antiproliferative effect (cell proliferation, luminescence): 49 % UTC

## 1198728 (TATTAGAGTATGTGGC; modified gapmer, further chemistry not given here) [compound 1198728]
[8]
  Average Tumor weight: 0.88 g
[8]; day 10 post-implantation
  Average Tumor Volume: 113 mm^3
[8]; day 13 post-implantation
  Average Tumor Volume: 253 mm^3
[8]; day 17 post-implantation
  Average Tumor Volume: 423 mm^3
[8]; day 21 post-implantation
  Average Tumor Volume: 621 mm^3
[8]; day 24 post-implantation
  Average Tumor Volume: 835 mm^3
[8]; day 27 post-implantation
  Average Tumor Volume: 988 mm^3
[8]; day 31 post-implantation
  Average Tumor Volume: 1123 mm^3
[8]; day 34 post-implantation
  Average Tumor Volume: 1233 mm^3
[8]; day 38 post-implantation
  Average Tumor Volume: 1239 mm^3
[8]; day 40 post-implantation
  Average Tumor Volume: 1277 mm^3
[8]; day 44 post-implantation
  Average Tumor Volume: 1277 mm^3
